The subject of test [1] is human lung carcinoma (A-549). The test is described as follows: Growth inhibition, SRB assay, A-549. It is filed as cell-based. Particulars: A549, 72 hours, three independent experiments, read-out: Growth inhibition of cancer cell: GI50, A-549. The procedure: (§1) T-type calcium channel blocking effects of the compounds of the present invention were tested according to an electrophysiological whole-cell patch-clamp method, which uses mammalian HEK293 cell line selectively expressing α1G among T-type calcium channel encoding genes, wherein the α1G is mainly expressed at nerve cells (derived from […]), as described in Korean Patent No. 0610731 and Monteil, A., et al., J. Biol. Chem. 2000, 275, 6090-6100. Also, cytotoxicities of the compounds according to the present invention were tested according to a 3-(4,5-dimethylthiazol-2-yl)-2,5-diphenyltetrazolium bromide (MTT) assay. Further, growth inhibition effects against cancer cell lines of the compounds according to the present invention were tested according to a sulforhodamine B (SRB) assay, as disclosed in Skehan, P. et al., J. Natl Cancer Inst. 1990, 82, 1107-1112.
(§2) Experiment 3: Analysis for Growth Inhibition Against Cancer Cell Lines Using SRB Assay
(§3) The compounds according to the present invention were evaluated for their growth inhibition against five cancer cell lines, including human lung carcinoma (A-549), human prostate cancer (DU 145), human colon cancer (HT-29), human malignant melanoma (SK-MEL-2) and human ovarian cancer (SK-OV-3) using sulforhodamine B (SRB) assay. All cell lines were grown in RPMI 1640 (Gibco BRL) supplemented with 10% (v/v) heat-inactivated fetal bovine serum (FBS) and maintained at 37° C. in a humidified atmosphere with 5% CO2. The cells were seeded into 96-well plate. Various concentrations of compounds were added to each well in triplicate and then incubated at 37° C. with 5% CO2 for 72 hours such that cells are in the exponential phase of growth at the time of drug addition. After incubation, 100 μL of formalin solution was gently added to the wells. Microplates were left for 30 min at room temperature and washed five times with tap water. One hundred microliters of 0.4% SRB solution was added to each well and left at room temperature for 30 min. SRB was removed and the plates were washed five times with 1% acetic acid before air-drying. Bound SRB was solubilized with 100 μL of 10 mM unbuffered Tris-base solution (Sigma) and plates were left on a plate shaker for at least 10 min. The optical density was measured using a microplate reader (Versamax, Molecular Devices) with a 520 nm wavelength and the growth inhibition concentration was expressed as GI50.

The subject of test [2] is human prostate cancer (DU 145). The test is described as follows: Growth inhibition, SRB assay, DU 145. It is filed as cell-based. The conditions noted are these: 72 hours, three independent experiments, read-out: Growth inhibition of cancer cell: GI50, DU 145. How it is done: as §1, §2, §3
(In SRB staining, fixed cells bind dye roughly in proportion to their protein.)

The test system of test [3] is human colon cancer (HT-29). The test is described as follows: Growth inhibition, SRB assay, HT-29. It is filed as cell-based. Particulars: for GI50: Homo sapiens, HT-29, SRB assay, 72 hours, three independent experiments, read-out: Growth inhibition of cancer cell: GI50, HT-29. The procedure: as §1, §2, §3
Test [4] concerns human malignant melanoma (SK-MEL-2). In words: Growth inhibition, SRB assay, SK-MEL-2. Particulars: 72 hours, three independent experiments, read-out: Growth inhibition of cancer cell: GI50, SK-MEL-2. It is filed as cell-based. How it is done: as §1, §2, §3
For test [5], the system named is human ovarian cancer (SK-OV-3). The test is described as follows: Growth inhibition, SRB assay, SK-OV-3. It is filed as cell-based. Particulars: 72 hours, three independent experiments, read-out: Growth inhibition of cancer cell: GI50, SK-OV-3. The procedure: as §1, §2, §3
Test [6] has as its target T1, T-type calcium channel (α1G) (Homo sapiens, UniProt O43497).
T1 construct: expressed in transfected cells
In words: T-type calcium channel blocking, electrophysiological whole-cell patch-clamp in HEK293 cells expressing α1G. It is filed as cell-based. Particulars: dose-response curve, three independent experiments, read-out: Channel blocking effect (IC50) T-type (α1G). How it is done: as §1
Experiment 1: Methods for Culturing HEK293 cells and measuring T-type Calcium Channel Activity Using an Electrophysiological Method
HEK293 cells were cultured in Dulbecco's modified Eagle's medium (DMEM) supplemented with 10% fetal bovine serum (FBS) and 1% penicillin/streptomycin (v/v) in 36.5° C. humidified incubator (95% air-5% CO2). […] The cells used for T-type calcium channel activity assay were cultured on a cover slip coated with poly-L-lysine (0.5 mg/mL) whenever sub-cultured, and their calcium channel activity was recorded 2 to 7 days after the cultivation. Current of the T-type calcium channel at a single cell level was measured according to an electrophysiological whole-cell patch-clamp method using EPC-9 amplifier (HEKA, Germany). […] Inward current caused by the T-type calcium channel activation which occurred when the cells were converted into a whole-cell recording mode by stabbing a microglass electrode having 3-4 MΩ resistance which was filled with the cell interior solution into a single cell and de-polarized at −30 mV (50 ms duration period) every 10 s with fixing membrane potential to −100 mV was measured according to a T-type calcium channel protocol activated at low current.
Background: Patch clamp records ionic current or voltage across a cell membrane.

A further test has as its system five cancer cell lines. In words: Growth inhibition, SRB assay, five cancer cell lines overall. It is filed as cell-based, human. The procedure:
as §2
as §3, with “One hundred microliters of 0.4% SRB solution was added to each well and left at room temperature for 30 min. SRB was removed and the plates were washed five times with 1% acetic acid before air-drying. Bound SRB was solubilized with 100 μL of 10 mM unbuffered Tris-base solution (Sigma) and plates were left on a plate shaker for at least 10 min.” left out
The biological activities of doxorubicin and KYS05042 disclosed in Korean Patent No. 0610731 were evaluated as references, and the results are indicated in Table 2.

By GI50 is commonly meant the concentration giving 50% growth inhibition. As a reminder, the IC50 is the point on the concentration scale where inhibition reaches its midpoint.

T1 sequence (O43497 whole entry): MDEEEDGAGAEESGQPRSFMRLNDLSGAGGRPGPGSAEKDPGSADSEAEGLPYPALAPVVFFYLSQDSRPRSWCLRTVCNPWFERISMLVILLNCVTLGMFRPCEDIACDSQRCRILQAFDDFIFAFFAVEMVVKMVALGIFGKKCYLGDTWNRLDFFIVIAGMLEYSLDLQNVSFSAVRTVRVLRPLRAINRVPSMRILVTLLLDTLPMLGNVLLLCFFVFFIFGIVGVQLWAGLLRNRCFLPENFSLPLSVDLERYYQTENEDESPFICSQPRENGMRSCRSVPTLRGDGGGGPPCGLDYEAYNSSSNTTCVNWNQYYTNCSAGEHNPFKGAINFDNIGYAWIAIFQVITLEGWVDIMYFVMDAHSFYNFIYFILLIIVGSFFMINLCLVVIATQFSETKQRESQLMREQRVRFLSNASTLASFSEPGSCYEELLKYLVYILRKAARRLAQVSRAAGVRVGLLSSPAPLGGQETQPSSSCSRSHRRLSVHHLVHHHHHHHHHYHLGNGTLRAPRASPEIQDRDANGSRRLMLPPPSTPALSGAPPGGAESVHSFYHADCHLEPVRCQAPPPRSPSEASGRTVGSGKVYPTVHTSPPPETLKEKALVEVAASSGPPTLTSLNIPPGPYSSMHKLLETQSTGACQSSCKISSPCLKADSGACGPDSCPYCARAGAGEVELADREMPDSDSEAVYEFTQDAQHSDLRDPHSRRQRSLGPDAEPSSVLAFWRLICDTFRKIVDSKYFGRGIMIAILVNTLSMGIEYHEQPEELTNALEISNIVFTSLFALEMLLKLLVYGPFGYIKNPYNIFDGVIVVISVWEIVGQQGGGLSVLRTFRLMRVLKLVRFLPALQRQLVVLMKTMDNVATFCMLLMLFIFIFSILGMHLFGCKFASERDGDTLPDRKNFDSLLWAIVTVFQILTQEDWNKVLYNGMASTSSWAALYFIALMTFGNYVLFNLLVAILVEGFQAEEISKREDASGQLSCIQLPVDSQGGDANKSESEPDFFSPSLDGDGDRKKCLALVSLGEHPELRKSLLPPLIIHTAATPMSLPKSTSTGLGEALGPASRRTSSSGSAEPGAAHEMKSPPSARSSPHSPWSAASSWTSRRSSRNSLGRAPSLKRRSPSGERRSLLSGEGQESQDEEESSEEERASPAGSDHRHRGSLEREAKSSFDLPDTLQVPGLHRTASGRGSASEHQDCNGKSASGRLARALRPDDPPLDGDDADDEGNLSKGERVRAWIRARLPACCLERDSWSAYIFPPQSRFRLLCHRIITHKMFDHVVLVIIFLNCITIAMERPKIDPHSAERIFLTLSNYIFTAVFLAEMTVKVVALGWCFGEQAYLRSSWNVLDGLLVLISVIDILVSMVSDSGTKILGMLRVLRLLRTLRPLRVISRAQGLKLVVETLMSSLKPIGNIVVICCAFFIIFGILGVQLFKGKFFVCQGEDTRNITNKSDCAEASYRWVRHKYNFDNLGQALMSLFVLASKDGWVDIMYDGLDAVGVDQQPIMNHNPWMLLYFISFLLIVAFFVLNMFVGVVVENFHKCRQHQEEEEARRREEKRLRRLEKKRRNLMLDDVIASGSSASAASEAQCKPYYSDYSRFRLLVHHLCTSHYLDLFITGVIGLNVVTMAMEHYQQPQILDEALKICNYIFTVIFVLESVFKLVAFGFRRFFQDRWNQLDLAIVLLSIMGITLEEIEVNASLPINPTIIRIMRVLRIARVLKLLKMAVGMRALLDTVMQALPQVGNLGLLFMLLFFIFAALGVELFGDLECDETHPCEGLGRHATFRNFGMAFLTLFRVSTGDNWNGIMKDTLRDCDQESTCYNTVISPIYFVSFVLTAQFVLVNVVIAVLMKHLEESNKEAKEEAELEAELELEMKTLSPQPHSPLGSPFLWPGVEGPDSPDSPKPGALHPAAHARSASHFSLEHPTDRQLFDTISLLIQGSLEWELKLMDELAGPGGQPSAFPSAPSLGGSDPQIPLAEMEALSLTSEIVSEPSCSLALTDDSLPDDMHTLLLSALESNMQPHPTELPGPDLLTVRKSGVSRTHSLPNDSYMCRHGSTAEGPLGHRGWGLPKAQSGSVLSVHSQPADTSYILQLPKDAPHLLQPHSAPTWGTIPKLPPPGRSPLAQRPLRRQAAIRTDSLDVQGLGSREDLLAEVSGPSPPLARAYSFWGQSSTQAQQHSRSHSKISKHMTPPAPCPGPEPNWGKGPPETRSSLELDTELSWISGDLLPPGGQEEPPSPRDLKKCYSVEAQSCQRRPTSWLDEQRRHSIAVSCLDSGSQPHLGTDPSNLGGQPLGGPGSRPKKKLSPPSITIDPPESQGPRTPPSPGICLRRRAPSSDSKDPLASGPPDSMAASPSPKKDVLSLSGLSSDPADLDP

Take `COc1cccc2c1C(=O)c1c(O)c3c(c(O)c1C2=O)C[C@@](O)(C(=O)CO)C[C@@H]3O[C@H]1C[C@H](N)[C@H](O)[C@H](C)O1` [Doxorubicin, doxorubicin, reference compound]: the concentration for 50% growth inhibition (GI50) in test [1] stood at 160 ± 10 nM; in test [2], 60 ± 10 nM; in test [3], 210 ± 40 nM; in test [4] it was 110 ± 10 nM; in test [5], 120 ± 20 nM.
As for `CN(CCCCCN1CCCC1)C1=Nc2ccccc2C(CC(=O)NCc2ccccc2)N1c1ccc(-c2ccccc2)cc1` (stereo not drawn) [KYS05080], in test [6], the IC50 worked out at 260 ± 10 nM. Further, the GI50 in test [1] worked out at 870 ± 180 nM; in test [2], 2490 ± 530 nM; in test [3], 610 ± 120 nM; in test [4], 690 ± 150 nM; in test [5] it was 2760 ± 760 nM.
With `COC(=O)CC1c2ccccc2N=C(N(C)CCCCCN(C)C)N1c1ccc(-c2ccccc2)cc1` (stereo not drawn) [KYS05089, 2-[N-(5-N′,N′-Dimethylaminopentyl)-N-Methylamino]-3-(4-Biphenylyl)-4-Methoxycarbonylmethyl-3,4-Dihydroquinazoline], in test [6], the 50% inhibitory concentration (IC50) is 230 ± 30 nM. In addition, the GI50 amounted to 1770 ± 160 nM in test [1]; 1780 ± 170 nM in test [2]; 520 ± 240 nM in test [3]; 1910 ± 110 nM in test [4]; 1950 ± 40 nM in test [5].
Regarding `CN(C)CCCCCN(C)C1=Nc2ccccc2C(CC(=O)NCc2ccccc2)N1c1ccc(-c2ccccc2)cc1` (stereo not drawn) [KYS05090, 4-(N-Benzylacetamino)-3-(4-Biphenylyl)-2-[N-(5-N′,N′-Dimethylaminopentyl)-N-Methylamino]-3,4-Dihydroquinazoline], in test [6], the IC50 was found to be 41 ± 1 nM. The concentration for 50% growth inhibition (GI50) is 170 ± 20 nM in test [1]; 190 ± 20 nM in test [2]; 40 ± 10 nM in test [3]; 480 ± 130 nM in test [4]; 660 ± 130 nM in test [5]. For the same compound, in test [3] (human colon cancer cell line, compared to KYS05042), the “Times stronger activity against human colon cancer cell line compared to KYS05042” value is “about 40 times”. Moreover, the “Times stronger activity against human colon cancer cell line compared to doxorubicin” value in test [3] (human colon cancer cell line, compared to doxorubicin) is listed as “about 5 times”. For the same compound, the “Times stronger growth inhibition compared to KYS05042” value in the test with five cancer cell lines (compared to KYS05042) is listed as “about 10 times”. Further, the “Growth inhibition compared to doxorubicin” value in the test with five cancer cell lines (compared to doxorubicin) was “nearly equipotent growth inhibition”.

For the origin of these results see US8168646B2, “3,4-dihydroquinazoline derivatives” (Dongwoo Syntech Co., Ltd., priority 2007, dated 2012).
